Experimental data as given in patent US20140288071A1, “INHIBITORS OF NOTUM […] AND METHODS OF THEIR USE” (priority 2011, published 2014).
Values belong to the compound of their own block, whether it stands above or below them.

Key:
[1] = target: T1, human notum pectinacetyltransferase (Homo sapiens, UniProt Q6P988); experiment: Binding assay (OPTS esterase substrate, fluorimetric); type: biochemical; conditions: OPTS substrate 5 μM
T1 construct: made in house; conditioned medium used
T1 sequence (Q6P988 20-496): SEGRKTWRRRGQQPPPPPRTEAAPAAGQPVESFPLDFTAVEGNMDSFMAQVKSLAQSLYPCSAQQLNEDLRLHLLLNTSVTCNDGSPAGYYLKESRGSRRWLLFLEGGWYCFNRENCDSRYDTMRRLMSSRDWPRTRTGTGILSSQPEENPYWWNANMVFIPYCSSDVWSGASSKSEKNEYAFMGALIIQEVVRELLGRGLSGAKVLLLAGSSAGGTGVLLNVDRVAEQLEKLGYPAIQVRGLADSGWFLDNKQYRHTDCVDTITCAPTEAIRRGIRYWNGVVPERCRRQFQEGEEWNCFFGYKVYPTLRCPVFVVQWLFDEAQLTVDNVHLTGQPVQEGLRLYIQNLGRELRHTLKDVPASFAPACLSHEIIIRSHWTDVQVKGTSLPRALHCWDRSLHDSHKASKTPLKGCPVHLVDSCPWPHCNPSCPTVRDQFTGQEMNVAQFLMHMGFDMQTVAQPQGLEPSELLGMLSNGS
Description: Plasmid containing human notum pectinacetyltransferase in pcDNA3.1(+) vector was transfected into HEK293 cells and clones were selecting by growing in presence of 400 ug/mL of G418. Condition media from these cells was used for the assay.

[2] = target: T1, human notum pectinacetyltransferase; experiment: Reporter assay (CellSensor LEF/TCF-bla FreeStyle 293F cells, Wnt3a and notum conditioned media); type: cell-based
Description: Plasmid containing human notum pectinacetyltransferase in pcDNA3.1(+) vector was transfected into HEK293 cells and clones were selecting by growing in presence of 400 ug/mL of G418. […] L cells overexpressing and secreting Wnt3a into the conditioned media were purchased from ATCC.
The assay protocol was as follows. […] The cell growth medium consisted of DMEM with 10% Dialyzed FBS, 5 μg/ml Blasticidin (Invitrogen, R210-01), 0.1 mM NEAA, 25 mM HEPES and 1×GPS. Cells were then trypsinized by first rinsing with PBS, followed by addition of 5 mL of trypsin and incubation of plates at room temperature for two minutes. A total of 10 mL of assay media (Opti-MEM, plus 0.5% dialyzed FBS, 0.1 mM NEAA, 1 mM sodium pyruvate, 10 mM HEPES, 1×GPS) was then added per 15 cm plate. Cells were counted and suspended at 0.75 million cells per mL. […] After incubation of cells at 37° C. for 3 hours, 10 μL of 30 mM LiCl in assay medium was added per well, followed by incubation at 37° C. for another 3 hours. […] Ten μL of the Wnt3a/notum pentinacetyltransferase mixture was then transferred from Greiner plates to each well of the 384-well plates containing the CellSensor cells. After incubation of cells overnight at 37° C., reactions were developed by addition of […] of 1×CCF4 (Invitrogen, Catalogue number K1085) to each well, covering the entire 384-well plate, and gentle rocking in the dark at room temperature for 3 hours.

[3] = tested on: F1 male hybrid (129×C57) mice; experiment: Midshaft femur cortical thickness by microCT in treated mice; type: in vivo; conditions: for increase in midshaft femur cortical thickness: second study
Description: The compound was administered in the animals' diet. Four groups of mice were used: control (N=12); 25 mg/kg compound (N=9); 83 mg/kg compound (N=9); and an additional group wherein Li2CO3 was administered in the diet (0.1%) (N=9).
Midshaft femur cortical thickness was measured using a Scanco μCT40. […] For the Li2CO3 group, a decrease in cortical bone thickness of 2% (p=0.90) was observed. […]
Midshaft femur cortical thickness was measured by microCT (Scanco μCT40). […]

[4] = tested on: Fischer 344 ovariectomized rats; experiment: Midshaft femur and tibia cortical thickness by microCT in sham and ovariectomized rats; type: in vivo; conditions: target dose 30 mg/kg in diet, five weeks, ANOVA p=0.05 for treatment
Excerpt: The pharmacology of 2-((5-chloro-6-methylthieno[2,3-d]pyrimidin-4-yl)thio)acetic acid was studied in Fischer 344 ovariectomized rats. The rats underwent ovariectomies or sham surgery at 43 or 46 weeks of age, and treatment with the compound started at 37 or 40 weeks thereafter, at 83 weeks of age.
Four treatment groups were used: sham-surgery given control diet (N=14); sham-surgery given compound (N=12); OVX-surgery given control diet (N=14); and OVX-surgery given compound (N=12). The compound was dosed by incorporating it into the rats' diet: 0.46 grams of compound per kg of diet. The target dose was 30 mg/kg. Dosing occurred for five weeks.
Bone mass and architecture was determined by microCT, using a Scanco μCT40. […] The difference between the cortical bone thicknesses of the sham control and OVX control was −13%. Two-factor ANOVA values were: p<0.001 for OVX surgery; p=0.05 for treatment; and p=0.65 for interaction.
Two-factor ANOVA values were: p=0.79 for OVX surgery; p=0.05 for treatment; and p=0.52 for interaction.

IC50 [1]: < 25 nM | EC50 [2]: < 1000 nM
Compound: Cc1c(Cl)sc2c(SCC(=O)O)ncnc12 [2-((6-chloro-7-methylthieno[3,2-d]pyrimidin-4-yl)thio)acetic acid]
increase in midshaft femur cortical bone thickness compared to control ([3]; first experiment, 10 mg/kg daily oral gavage, 25 days, starting at 54 weeks of age, p=0.06): 6% | increase in midshaft femur cortical bone thickness compared to control ([3]; first experiment, 100 mg/kg daily oral gavage, 25 days, starting at 54 weeks of age, p=0.03): 7% | increase in midshaft femur cortical bone thickness compared to control ([3]; second experiment, 34 mg/kg in diet, 18 days, starting at 8.1 weeks of age, p<0.01): 10% | increase in midshaft femur cortical bone thickness compared to control ([3]; second experiment, 34 mg/kg in diet, seven days, starting at 8.1 weeks of age, p=0.13): 6%

IC50 [1]: < 25 nM | EC50 [2]: < 1000 nM
Compound: CC(C)c1sc2ncnc(SCC(=O)O)c2c1Cl [2-((5-chloro-6-isopropylthieno[2,3-d]pyrimidin-4-yl)thio)acetic acid]
increase in cortical bone thickness (midshaft femur) compared to control ([3]; 5 mg/kg twice daily oral gavage, 25 days, starting at 8.7 weeks of age, p=0.002): 6% | increase in cortical bone thickness (midshaft femur) compared to control ([3]; 10 mg/kg twice daily oral gavage, 25 days, starting at 8.7 weeks of age, p=0.007): 5% | increase in cortical bone thickness (midshaft femur) compared to control ([3]; 15 mg/kg twice daily oral gavage, 25 days, starting at 8.7 weeks of age, p=0.001): 6%

Compound: Cc1sc2ncnc(SCC(=O)O)c2c1C [2-((5,6-dimethylthieno[2,3-d]pyrimidin-4-yl)thio)acetic acid]
increase in cortical bone thickness (midshaft femur) compared to control ([3]; first study, 25 mg/kg in diet, 25 days, starting at 10.7 weeks of age, p=0.04): 9% | increase in cortical bone thickness (midshaft femur) compared to control ([3]; first study, 83 mg/kg in diet, 25 days, starting at 10.7 weeks of age, p=0.07): 8% | increase in midshaft femur cortical thickness ([3]; 8 mg/kg in diet, 25 days, starting at 10.7 weeks of age, p=0.19): 4% | increase in midshaft femur cortical thickness ([3]; 24 mg/kg in diet, 25 days, starting at 10.7 weeks of age, p=0.05): 6%

IC50 [1]: < 25 nM | EC50 [2]: < 1000 nM
Compound: Cc1sc2ncnc(SCC(=O)O)c2c1Cl [2-((5-chloro-6-methylthieno[2,3-d]pyrimidin-4-yl)thio)acetic acid]
increase in midshaft femur cortical bone thickness ([4]; intact (sham) rats): 3% | increase in midshaft tibia cortical thickness ([4]; intact (sham) rats): 2% | increase in midshaft femur cortical bone thickness ([4]; ovariectomized rats): 5% | increase in midshaft tibia cortical thickness ([4]; ovariectomized rats): 5%
